Source: the supplement of paper PMC10307832

Assays:
Experiment in all cases: relative viability (nuclei count vs DMSO), 5 days (fraction); higher = more cells survive
Bicalutamide + Dasatinib = compound: CC(O)(CS(=O)(=O)c1ccc(F)cc1)C(=O)Nc1ccc(C#N)c(C(F)(F)F)c1 [Bicalutamide] + Cc1nc(Nc2ncc(C(=O)Nc3c(C)cccc3Cl)s2)cc(N2CCN(CCO)CC2)n1 [Dasatinib] (partner 0.075 µM)
Summary of the method: (§1)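 One day after seeding in 1536-well plates, lung cancer cell lines were dosed by pin tool. Dosing was either single-drug or a fixed anchor-drug dose plus five library-drug doses (not always all listed) in √10 steps. After 5 days, nuclei were stained in one fix-and-stain step and counted on 4× images, and relative viability is the nuclei count of treated wells over that of vehicle wells, given as the median of duplicate plates.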

[1] = compound: C(C(=O)C(=O)O)Br [Bromopyruvate] + Nc1ncn([C@H]2C[C@H](O)[C@@H](CO)O2)c(=O)n1 [Decitabine] (partner 2 µM)
Summary of the method: as §1

[2] = compound: CC(O)(CS(=O)(=O)c1ccc(F)cc1)C(=O)Nc1ccc(C#N)c(C(F)(F)F)c1 [Bicalutamide] + CCNC(=O)c1noc(-c2cc(C(C)C)c(O)cc2O)c1-c1ccc(CN2CCOCC2)cc1 [Luminespib] (partner 0.01 µM)
Summary of the method: as §1

[3] = compound: C(C(=O)C(=O)O)Br [Bromopyruvate] + CC(C)C[C@H](NC(=O)[C@H](Cc1ccccc1)NC(=O)c1cnccn1)B(O)O [Bortezomib] (partner 0.002 µM)
Summary of the method: as §1

Cell Line	relative viability (Bicalutamide + Dasatinib; first compound 0.08 µM)	relative viability (Bicalutamide + Dasatinib; first compound 0.253 µM)	relative viability (Bicalutamide + Dasatinib; first compound 0.8 µM)	relative viability (Bicalutamide + Dasatinib; first compound 2.53 µM)	relative viability ([1]; first compound 1 µM)	relative viability ([1]; first compound 3.162 µM)	relative viability ([1]; first compound 10 µM)	relative viability ([1]; first compound 31.62 µM)	relative viability ([1]; first compound 100 µM)	relative viability ([2]; first compound 0.08 µM)	relative viability ([2]; first compound 0.253 µM)	relative viability ([2]; first compound 0.8 µM)	relative viability ([2]; first compound 2.53 µM)	relative viability ([3]; first compound 1 µM)	relative viability ([3]; first compound 3.162 µM)	relative viability ([3]; first compound 10 µM)	relative viability ([3]; first compound 31.62 µM)	relative viability ([3]; first compound 100 µM)
NCI-H460	0.498	0.44	0.646	0.483	0.484	0.459	0.679	0.46	0.468	0.0289	0.0405	0.0453	0.035	1.06	1.14	1.34	0.978	1.07
NCI-H520	0.192	0.195	0.185	0.137	0.576	0.486	0.473	0.531	0.414	0.232	0.22	0.274	0.205	0.6	0.595	0.532	0.49	0.541
NCI-H596	0.576	0.599	0.798	0.598	1.64	1.11	0.974	1.05	1.03	1.08	0.945	1.28	1.14		1.14	1.01	0.915	1.03
NCI-H647	0.187	0.173	0.208	0.139	0.439	0.362	0.405	0.393	0.474	0.126	0.114	0.255	0.112	0.93	1.01	1	1.18	0.961
NCI-H650	0.483	0.42	0.456	0.356	0.295	0.322	0.316	0.281	0.26	0.822	0.793	0.947	0.792	0.946	0.819	0.856	0.897	0.973
NCI-H661	0.95	0.844	1.03	0.722	0.505	0.571	0.654	0.546	0.523	0.938	0.94	0.928	0.954	0.862	0.755	0.84	0.854	0.98
NCI-H727	0.376		0.383	0.653	0.815	1.09	0.966	0.915	0.871	0.366		0.378	0.339	1.01	0.984	0.939	0.729	1.01
NCI-H838	0.319	0.303	0.392	0.272	0.485	0.461	0.408	0.405	0.457	0.282	0.226	0.331	0.309	0.915	0.886	0.773	0.786	0.763
NCI-H1355	0.753	0.639	0.797	0.729	0.382	0.328	0.316	0.343	0.336	0.797	0.694	0.787	0.818	1.35	1.16	1.25	1.34	1.16
